How the values were obtained:
BaF3 [1] = assay: cells; type: functional, cell-based; settings: Mus musculus, BaF3, 72 h
Description: Antiproliferative activity against mouse BaF3 cells harboring FLT3 ITD/F691L mutant assessed as inhibition of cell growth incubated for 72 hrs

[2] = molecular target: Receptor-type tyrosine-protein kinase FLT3 (Homo sapiens, UniProt P36888, ITD); assay: Binding affinity to FLT3 ITD mutant (unknown origin)
[3] = molecular target: Cyclin-dependent kinase 6 (Homo sapiens, UniProt Q00534); assay: Inhibition of human CDK6 pretreated for 20 mins followed by [gamma-33P]-ATP addition and measured after 120 mins in presence of 10 uM ATP by radiometric Hot-SpotSM Kinase assay
[4] = molecular target: Receptor-type tyrosine-protein kinase FLT3 (Homo sapiens, UniProt P36888, D835V); assay: Binding affinity to FLT3 D835V mutant (unknown origin)
[5] = molecular target: CDK6/cyclin D1 (Homo sapiens) (UniProt P24385+Q00534); assay: Inhibition of CDK6/Cyclin D1 (unknown origin); type: protein-complex assay; settings: concentration not given here
[6] = AUC(0 to t) in rat at 10 mg/kg, po; type: ADME, organism-based; set-up: dose 10 mg/kg, route po; settings: in vivo
[7] = Cmax in Beagle dog at […], po; type: ADME, organism-based, Canis lupus familiaris; set-up: dose 1.5 mg/kg, route po; settings: in vivo
[8] = Half life in human liver microsomes by LC-MS/MS analysis; type: ADME, Microsome
[9] = molecular target: T1, Receptor-type tyrosine-protein kinase FLT3 (Homo sapiens, UniProt P36888); assay: Binding affinity to autoinhibited FLT3 (unknown origin)
T1 sequence (P36888 whole entry): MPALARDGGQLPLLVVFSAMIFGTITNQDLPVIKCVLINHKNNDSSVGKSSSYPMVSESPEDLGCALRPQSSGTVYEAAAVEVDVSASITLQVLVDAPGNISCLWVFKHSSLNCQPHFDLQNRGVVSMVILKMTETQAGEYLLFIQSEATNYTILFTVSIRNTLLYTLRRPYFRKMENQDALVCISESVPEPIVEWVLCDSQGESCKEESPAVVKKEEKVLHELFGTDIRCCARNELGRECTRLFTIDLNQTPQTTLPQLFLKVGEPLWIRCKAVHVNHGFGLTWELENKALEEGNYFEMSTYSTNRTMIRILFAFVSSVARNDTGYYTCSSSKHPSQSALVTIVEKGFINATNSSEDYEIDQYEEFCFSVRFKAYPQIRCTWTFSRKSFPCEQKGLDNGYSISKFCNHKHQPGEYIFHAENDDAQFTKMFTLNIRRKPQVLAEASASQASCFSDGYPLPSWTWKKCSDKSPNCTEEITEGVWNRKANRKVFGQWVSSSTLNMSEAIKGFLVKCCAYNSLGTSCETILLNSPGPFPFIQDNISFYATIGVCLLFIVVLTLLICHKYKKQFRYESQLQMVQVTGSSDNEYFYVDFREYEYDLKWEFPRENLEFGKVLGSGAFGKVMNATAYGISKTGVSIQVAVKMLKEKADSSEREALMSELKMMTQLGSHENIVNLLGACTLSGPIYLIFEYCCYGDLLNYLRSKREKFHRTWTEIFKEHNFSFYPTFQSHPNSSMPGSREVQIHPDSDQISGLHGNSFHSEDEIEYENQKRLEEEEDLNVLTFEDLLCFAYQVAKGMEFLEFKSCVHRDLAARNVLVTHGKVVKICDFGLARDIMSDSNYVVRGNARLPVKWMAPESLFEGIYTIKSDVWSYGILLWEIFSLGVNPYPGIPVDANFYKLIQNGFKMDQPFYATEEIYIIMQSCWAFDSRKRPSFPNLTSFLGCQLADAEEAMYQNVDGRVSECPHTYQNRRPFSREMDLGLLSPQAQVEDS

[10] = Tmax in Beagle dog at […], po; type: ADME, organism-based, Canis lupus familiaris; settings: in vivo, dose 1.5 mg/kg
[11] = Half life in Beagle dog at […], po; type: ADME, organism-based, Canis lupus familiaris; settings: in vivo, dose 1.5 mg/kg
[12] = Toxicity against nu/nu mouse xenografted with human MV4-11 cells assessed as decrease in body weight at 25 mg/kg, po qd for 2 weeks; type: organism-based; settings: in vivo, 336 h
BaF3 [13] = assay: cells; type: functional, cell-based; settings: Mus musculus, BaF3, 72 h; remark: listed apart in the source
Description: Antiproliferative activity against mouse BaF3 cells harboring FLT3 ITD mutant assessed as inhibition of cell growth incubated for 72 hrs

HL-60 = assay: Antiproliferative activity against human HL-60 cells expressing low level wild type FLT3 assessed as inhibition of cell growth; type: functional, cell-based
LOX IMVI = assay: Antiproliferative activity against human LOX IMVI cells assessed as inhibition of cell growth; type: functional
[14] = Tmax in rat at 10 mg/kg, po; type: ADME, organism-based; settings: in vivo
[15] = molecular target: Receptor-type tyrosine-protein kinase FLT3 (Homo sapiens) (UniProt P36888); assay: Inhibition of FLT3 (unknown origin); settings: concentration not given here
[16] = molecular target: Receptor-type tyrosine-protein kinase FLT3 (Homo sapiens, UniProt P36888, F691L/ITD); assay: Binding affinity to FLT3 ITD/F691L mutant (unknown origin)
[17] = molecular target: Receptor-type tyrosine-protein kinase FLT3 (Homo sapiens) (UniProt P36888); assay: Inhibition of FLT3 in human MV4-11 cells assessed as decrease in phosphorylated ERK level incubated for 24 hrs by immunoblot analysis; type: cell-based; settings: dose 20-600 nM
MOLM-13 = assay: Antiproliferative activity against human MOLM-13 cells harboring FLT3 ITD mutant assessed as inhibition of cell growth; type: functional, cell-based
[18] = molecular target: Receptor-type tyrosine-protein kinase FLT3 (Homo sapiens) (UniProt P36888); assay: Inhibition of FLT3 in human MV4-11 cells assessed as decrease in phosphorylated STAT5 level incubated for 24 hrs by immunoblot analysis; type: cell-based; settings: dose 20-600 nM
[19] = molecular target: Receptor-type tyrosine-protein kinase FLT3 (Homo sapiens, UniProt P36888, N841I); assay: Binding affinity to FLT3 N841I mutant (unknown origin)
[20] = molecular target: Receptor-type tyrosine-protein kinase FLT3 (Homo sapiens, UniProt P36888, R834Q); assay: Binding affinity to FLT3 R834Q mutant (unknown origin)
[21] = molecular target: T1, Receptor-type tyrosine-protein kinase FLT3; assay: Binding affinity to FLT3 (unknown origin)
K562 = assay: Antiproliferative activity against human K562 cells deficit of oncogenic FLT3 assessed as inhibition of cell growth; type: functional, cell-based
[22] = Oral bioavailability in rat at 10 mg/kg; type: ADME, organism-based; settings: in vivo
[23] = molecular target: Receptor-type tyrosine-protein kinase FLT3 (Homo sapiens, UniProt P36888, D835Y); assay: Binding affinity to FLT3 D835Y mutant (unknown origin)
[24] = molecular target: Receptor-type tyrosine-protein kinase FLT3 (Homo sapiens) (UniProt P36888); assay: Inhibition of FLT3 in human MV4-11 cells assessed as decrease in phosphorylated FLT3 level incubated for 24 hrs by immunoblot analysis; type: cell-based; settings: dose 20-600 nM
SW-620 = assay: Antiproliferative activity against human SW-620 cells assessed as inhibition of cell growth; type: functional
BaF3 [25] = assay: cells; type: functional, cell-based; settings: Mus musculus, BaF3, 72 h; remark: listed apart in the source
Description: Antiproliferative activity against mouse BaF3 cells harboring FLT3 ITD/D835V mutant assessed as inhibition of cell growth incubated for 72 hrs

SR [26] = assay: Antiproliferative activity against human SR cells assessed as inhibition of cell growth; type: functional
U-937 = assay: Antiproliferative activity against human U-937 cells expressing low level wild type FLT3 assessed as inhibition of cell growth; type: functional, cell-based
SR [27] = assay: Antiproliferative activity against human SR cells not addicted to FLT3 ITD mutant assessed as inhibition of cell growth; type: functional
[28] = Oral bioavailability in Beagle dog at […]; type: ADME, organism-based, Canis lupus familiaris; settings: in vivo, dose 1.5 mg/kg
[29] = molecular target: Receptor-type tyrosine-protein kinase FLT3 (Homo sapiens, UniProt P36888, K663Q); assay: Binding affinity to FLT3 K663Q mutant (unknown origin)

Sequence of Cyclin-dependent kinase 6 (Q00534 whole entry): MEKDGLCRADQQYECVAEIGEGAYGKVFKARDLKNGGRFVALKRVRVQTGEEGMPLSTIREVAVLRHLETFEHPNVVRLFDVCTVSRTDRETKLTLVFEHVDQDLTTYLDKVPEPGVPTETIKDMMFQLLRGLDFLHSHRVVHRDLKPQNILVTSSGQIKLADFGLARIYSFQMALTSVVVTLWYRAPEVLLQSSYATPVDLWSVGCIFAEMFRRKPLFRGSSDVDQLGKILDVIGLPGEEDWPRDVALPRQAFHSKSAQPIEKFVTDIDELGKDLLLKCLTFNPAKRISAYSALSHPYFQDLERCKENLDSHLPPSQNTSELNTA

- IC50 (BaF3 [1]): 95 nM
- Kd [2]: 18.2 nM
- IC50 [3]: 122 nM
- Kd [4]: 1.54 nM
- inhibition [5]: 68.8%
- AUC(0-t) [6]: 1080 ng·h/mL
- Cmax [7]: 52.1 ng/mL
- half-life [8]: 3.1 h
- Kd [9]: 121 nM
- Tmax [10]: 1.67 h
- half-life [11]: 11.1 h
- IC50 (BaF3 [13]): 39 nM
- IC50 (HL-60): 972 nM
- Tmax [14]: 4 h
- inhibition [15]: 99.6%
- Kd [16]: 1.61 nM
- inhibition [17]: Dose-Dependent Effect
- IC50 (MOLM-13): 16.3 nM
- inhibition [18]: Dose-Dependent Effect
- Kd [19]: 77.2 nM
- Kd [20]: 66.5 nM
- Kd [21]: 22.1 nM
- IC50 (K562): 572 nM
- bioavailability [22]: 33.3%
- Kd [23]: 7.16 nM
- inhibition [24]: Dose-Dependent Effect
- GI50 (SW-620): < 1000 nM
- IC50 (BaF3 [25]): 9 nM
- IC50 (U-937): 692 nM
- bioavailability [28]: 72.7%
- Kd [29]: 121 nM
Compound: O=C(Nc1ccc(N2CCNCC2)cc1)c1n[nH]cc1Nc1cc(Oc2ccccc2)ncn1
- Activity [12]: Non-Toxic
- GI50 (LOX IMVI): < 1000 nM
- GI50 (SR [26]): < 1000 nM
- GI50 (SR [27]): 300 nM

From ChEMBL document CHEMBL5370533 (Eur J Med Chem, 2023)
